Source: the kinase profiling compilation of Christmann-Franck et al. (2016)

What was measured:
Assay in all cases: KINOMEscan competition binding
Settings in all cases: compound 2.0 µM
MYLK4 (human) = MYLK4 (human) (UniProt Q86YV6)
NEK4 (human) = NEK4 (human) (UniProt P51957)
[1] = system: FLT3 (human), P36888 [D835Y]
ALK (human) = ALK (human) (UniProt Q9UM73)
DYRK2 (human) = DYRK2 (human) (UniProt Q92630)
PIP5K1C (human) = PIP5K1C (human) (UniProt O60331)
HUNK (human) = HUNK (human) (UniProt P57058)
CDKL1 (human) = CDKL1 (human) (UniProt Q00532)
FYN (human) = FYN (human) (UniProt P06241)
MATK (human) = MATK (human) (UniProt P42679)
CaMK1 (human) = CaMK1 (human) (UniProt Q14012)
NEK1 (human) = NEK1 (human) (UniProt Q96PY6)
EPHB2 (human) = EPHB2 (human) (UniProt P29323)
MST1R (human) = MST1R (human) (UniProt Q04912)
[2] = system: PIK3CA (human), P42336 [Q546K]
PHKG1 (human) = PHKG1 (human) (UniProt Q16816)
HCK (human) = HCK (human) (UniProt P08631)
PRKD1 (human) = PRKD1 (human) (UniProt Q15139)
NEK11 (human) = NEK11 (human) (UniProt Q8NG66)
[3] = system: FLT3 (human), P36888 [D835H]
IRAK4 (human) = IRAK4 (human) (UniProt Q9NWZ3)
[4] = system: MET (human), P08581 [M1250T]
CHEK1 (human) = CHEK1 (human) (UniProt O14757)
CHUK (human) = CHUK (human) (UniProt O15111)
NEK9 (human) = NEK9 (human) (UniProt Q8TD19)
HIPK1 (human) = HIPK1 (human) (UniProt Q86Z02)
FLT1 (human) = FLT1 (human) (UniProt P17948)
HIPK3 (human) = HIPK3 (human) (UniProt Q9H422)
[5] = system: RET (human), P07949 [V804L]
BMPR1A (human) = BMPR1A (human) (UniProt P36894)
MAPK11 (human) = MAPK11 (human) (UniProt Q15759)
STK32A (human) = STK32A (human) (UniProt Q8WU08)
EPHB1 (human) = EPHB1 (human) (UniProt P54762)
ACVR2A (human) = ACVR2A (human) (UniProt P27037)
MAP2K7 (human) = MAP2K7 (human) (UniProt O14733)
STK16 (human) = STK16 (human) (UniProt O75716)
LCK (human) = LCK (human) (UniProt P06239)
GSK3A (human) = GSK3A (human) (UniProt P49840)
DAPK3 (human) = DAPK3 (human) (UniProt O43293)
PIK3CD (human) = PIK3CD (human) (UniProt O00329)
PIP4K2C (human) = PIP4K2C (human) (UniProt Q8TBX8)
GAK (human) = GAK (human) (UniProt O14976)
MARK1 (human) = MARK1 (human) (UniProt Q9P0L2)

Sequence of RET (human), P07949 [V804L] (P07949 whole entry V804L, looked up): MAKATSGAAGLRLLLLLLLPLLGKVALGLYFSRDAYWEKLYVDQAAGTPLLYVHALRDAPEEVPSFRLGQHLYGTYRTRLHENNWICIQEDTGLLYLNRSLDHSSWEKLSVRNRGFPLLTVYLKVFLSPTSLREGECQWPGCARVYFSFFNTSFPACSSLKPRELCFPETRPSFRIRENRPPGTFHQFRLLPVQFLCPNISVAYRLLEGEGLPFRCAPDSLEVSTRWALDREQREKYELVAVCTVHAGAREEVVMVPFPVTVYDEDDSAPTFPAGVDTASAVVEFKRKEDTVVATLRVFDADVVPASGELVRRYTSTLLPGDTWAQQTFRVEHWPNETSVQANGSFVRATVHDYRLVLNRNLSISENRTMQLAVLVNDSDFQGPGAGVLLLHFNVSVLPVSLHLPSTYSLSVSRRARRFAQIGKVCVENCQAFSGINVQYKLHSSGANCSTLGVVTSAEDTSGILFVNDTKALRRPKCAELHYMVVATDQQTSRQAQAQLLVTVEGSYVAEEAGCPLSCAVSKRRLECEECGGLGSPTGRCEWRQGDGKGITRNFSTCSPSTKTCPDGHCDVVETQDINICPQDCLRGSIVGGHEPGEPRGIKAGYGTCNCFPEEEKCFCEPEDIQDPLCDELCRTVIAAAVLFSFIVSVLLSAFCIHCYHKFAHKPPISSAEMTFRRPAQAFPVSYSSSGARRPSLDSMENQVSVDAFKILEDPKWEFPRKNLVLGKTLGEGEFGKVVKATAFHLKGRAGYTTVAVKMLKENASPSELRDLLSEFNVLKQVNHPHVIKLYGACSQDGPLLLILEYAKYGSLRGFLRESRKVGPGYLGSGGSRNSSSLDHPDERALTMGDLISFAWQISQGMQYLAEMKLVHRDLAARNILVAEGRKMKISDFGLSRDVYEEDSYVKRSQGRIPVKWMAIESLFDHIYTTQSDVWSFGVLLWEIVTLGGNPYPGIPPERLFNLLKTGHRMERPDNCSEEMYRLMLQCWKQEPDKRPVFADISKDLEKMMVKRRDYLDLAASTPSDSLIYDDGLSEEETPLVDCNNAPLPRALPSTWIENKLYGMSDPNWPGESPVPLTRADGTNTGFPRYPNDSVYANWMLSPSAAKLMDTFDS
Sequence of CHUK (human) (O15111 whole entry, looked up): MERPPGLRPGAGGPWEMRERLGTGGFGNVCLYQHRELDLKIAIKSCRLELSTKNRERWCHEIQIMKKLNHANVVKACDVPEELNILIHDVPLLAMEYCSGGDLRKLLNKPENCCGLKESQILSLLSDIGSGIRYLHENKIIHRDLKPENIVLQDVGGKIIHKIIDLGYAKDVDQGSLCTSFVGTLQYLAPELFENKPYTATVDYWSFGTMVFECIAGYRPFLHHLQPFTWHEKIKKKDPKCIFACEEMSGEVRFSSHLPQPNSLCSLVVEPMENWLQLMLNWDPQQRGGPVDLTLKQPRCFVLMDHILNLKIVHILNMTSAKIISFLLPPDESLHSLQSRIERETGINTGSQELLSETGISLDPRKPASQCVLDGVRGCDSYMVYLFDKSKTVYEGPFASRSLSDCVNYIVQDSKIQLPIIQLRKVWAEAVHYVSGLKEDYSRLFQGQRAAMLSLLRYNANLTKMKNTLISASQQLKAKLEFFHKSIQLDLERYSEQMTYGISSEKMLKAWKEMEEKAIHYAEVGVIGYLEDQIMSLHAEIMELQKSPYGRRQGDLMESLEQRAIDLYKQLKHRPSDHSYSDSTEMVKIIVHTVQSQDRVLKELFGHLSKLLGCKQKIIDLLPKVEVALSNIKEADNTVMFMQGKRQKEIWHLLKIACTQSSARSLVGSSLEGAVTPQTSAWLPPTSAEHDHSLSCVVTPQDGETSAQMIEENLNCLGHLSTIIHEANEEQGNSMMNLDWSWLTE
Sequence of MAP2K7 (human) (O14733 whole entry, looked up): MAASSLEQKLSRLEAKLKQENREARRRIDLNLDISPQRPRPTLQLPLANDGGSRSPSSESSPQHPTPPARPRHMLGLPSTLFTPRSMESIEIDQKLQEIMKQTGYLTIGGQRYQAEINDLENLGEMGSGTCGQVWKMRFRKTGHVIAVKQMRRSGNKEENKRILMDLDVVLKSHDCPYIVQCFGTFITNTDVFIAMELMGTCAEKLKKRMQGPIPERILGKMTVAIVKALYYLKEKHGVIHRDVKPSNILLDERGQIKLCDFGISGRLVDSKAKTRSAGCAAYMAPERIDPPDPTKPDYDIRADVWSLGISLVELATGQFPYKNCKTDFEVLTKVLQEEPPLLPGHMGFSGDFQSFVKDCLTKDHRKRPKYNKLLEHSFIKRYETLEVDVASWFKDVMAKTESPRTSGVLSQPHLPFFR
Sequence of IRAK4 (human) (Q9NWZ3 whole entry, looked up): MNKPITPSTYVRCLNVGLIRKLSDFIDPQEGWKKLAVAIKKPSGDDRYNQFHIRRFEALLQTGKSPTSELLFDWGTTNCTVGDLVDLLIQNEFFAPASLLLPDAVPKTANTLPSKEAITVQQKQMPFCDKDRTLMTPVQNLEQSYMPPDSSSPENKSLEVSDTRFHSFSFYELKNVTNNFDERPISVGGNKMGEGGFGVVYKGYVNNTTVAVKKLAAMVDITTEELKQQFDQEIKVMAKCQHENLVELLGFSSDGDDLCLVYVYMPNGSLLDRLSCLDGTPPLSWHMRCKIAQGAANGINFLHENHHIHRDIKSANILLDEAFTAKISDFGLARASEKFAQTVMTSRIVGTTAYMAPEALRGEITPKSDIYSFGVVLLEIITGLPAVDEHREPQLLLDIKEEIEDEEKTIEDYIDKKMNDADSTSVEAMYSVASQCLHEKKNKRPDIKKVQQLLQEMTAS
Sequence of CDKL1 (human) (Q00532 whole entry, looked up): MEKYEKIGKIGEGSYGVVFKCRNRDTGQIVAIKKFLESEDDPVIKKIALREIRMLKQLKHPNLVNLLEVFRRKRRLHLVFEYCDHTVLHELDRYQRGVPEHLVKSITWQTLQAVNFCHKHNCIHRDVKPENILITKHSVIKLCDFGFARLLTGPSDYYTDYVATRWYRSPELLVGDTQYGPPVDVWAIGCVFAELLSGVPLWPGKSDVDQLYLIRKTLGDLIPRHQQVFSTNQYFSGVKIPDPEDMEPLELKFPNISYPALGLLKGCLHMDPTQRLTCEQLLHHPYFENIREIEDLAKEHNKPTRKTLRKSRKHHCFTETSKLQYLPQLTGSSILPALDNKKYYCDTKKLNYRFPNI
Sequence of DYRK2 (human) (Q92630 whole entry, looked up): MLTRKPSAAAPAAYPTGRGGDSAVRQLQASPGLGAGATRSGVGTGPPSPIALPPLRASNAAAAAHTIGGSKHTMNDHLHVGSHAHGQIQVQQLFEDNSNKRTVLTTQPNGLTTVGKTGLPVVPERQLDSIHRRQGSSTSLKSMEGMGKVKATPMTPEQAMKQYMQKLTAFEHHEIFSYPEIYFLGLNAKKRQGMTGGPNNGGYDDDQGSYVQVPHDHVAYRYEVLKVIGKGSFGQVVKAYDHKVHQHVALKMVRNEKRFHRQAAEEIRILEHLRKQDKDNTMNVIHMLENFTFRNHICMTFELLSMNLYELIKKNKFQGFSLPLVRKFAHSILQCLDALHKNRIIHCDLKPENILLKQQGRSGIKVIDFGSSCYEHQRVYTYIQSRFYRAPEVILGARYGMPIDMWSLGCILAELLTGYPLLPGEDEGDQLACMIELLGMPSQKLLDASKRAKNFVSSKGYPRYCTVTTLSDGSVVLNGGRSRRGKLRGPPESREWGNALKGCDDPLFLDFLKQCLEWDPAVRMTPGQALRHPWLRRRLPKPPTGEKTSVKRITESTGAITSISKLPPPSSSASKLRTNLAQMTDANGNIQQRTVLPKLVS
Sequence of NEK9 (human) (Q8TD19 whole entry, looked up): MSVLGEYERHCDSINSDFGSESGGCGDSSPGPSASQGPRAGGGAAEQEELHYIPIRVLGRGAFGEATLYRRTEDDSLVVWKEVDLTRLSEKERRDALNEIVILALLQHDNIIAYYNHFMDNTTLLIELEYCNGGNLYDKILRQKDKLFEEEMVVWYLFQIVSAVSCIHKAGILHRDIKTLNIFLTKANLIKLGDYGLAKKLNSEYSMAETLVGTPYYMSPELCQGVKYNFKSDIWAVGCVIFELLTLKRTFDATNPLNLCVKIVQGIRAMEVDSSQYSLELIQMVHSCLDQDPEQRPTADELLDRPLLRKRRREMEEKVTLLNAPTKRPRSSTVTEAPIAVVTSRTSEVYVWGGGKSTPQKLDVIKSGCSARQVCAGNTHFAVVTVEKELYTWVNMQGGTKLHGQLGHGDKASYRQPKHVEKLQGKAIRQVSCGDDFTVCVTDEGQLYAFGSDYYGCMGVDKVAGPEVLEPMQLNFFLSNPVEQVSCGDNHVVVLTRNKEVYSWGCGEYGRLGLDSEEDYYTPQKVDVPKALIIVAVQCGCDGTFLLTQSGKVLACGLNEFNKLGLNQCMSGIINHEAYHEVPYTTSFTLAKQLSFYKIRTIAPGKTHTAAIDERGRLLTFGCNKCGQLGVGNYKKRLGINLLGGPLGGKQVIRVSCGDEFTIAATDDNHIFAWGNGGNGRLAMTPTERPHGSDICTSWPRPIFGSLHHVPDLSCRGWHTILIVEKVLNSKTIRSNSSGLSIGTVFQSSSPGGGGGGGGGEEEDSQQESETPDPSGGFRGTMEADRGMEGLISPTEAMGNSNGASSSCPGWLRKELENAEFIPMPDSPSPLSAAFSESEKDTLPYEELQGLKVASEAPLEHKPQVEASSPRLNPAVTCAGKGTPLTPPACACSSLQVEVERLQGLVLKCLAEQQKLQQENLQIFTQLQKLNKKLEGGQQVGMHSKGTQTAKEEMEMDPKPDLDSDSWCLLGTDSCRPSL
Sequence of CaMK1 (human) (Q14012 whole entry, looked up): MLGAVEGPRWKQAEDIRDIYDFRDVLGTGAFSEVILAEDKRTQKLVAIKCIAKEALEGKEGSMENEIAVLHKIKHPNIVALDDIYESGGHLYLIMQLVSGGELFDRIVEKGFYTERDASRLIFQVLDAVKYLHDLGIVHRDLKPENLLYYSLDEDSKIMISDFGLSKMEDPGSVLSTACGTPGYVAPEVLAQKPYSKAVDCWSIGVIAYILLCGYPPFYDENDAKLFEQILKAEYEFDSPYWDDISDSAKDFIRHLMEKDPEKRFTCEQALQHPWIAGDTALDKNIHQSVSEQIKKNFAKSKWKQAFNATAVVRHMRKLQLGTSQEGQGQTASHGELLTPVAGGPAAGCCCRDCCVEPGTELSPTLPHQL

N#Cc1ccc2ncnc(NCCc3ccc4ccccc4c3)c2c1
kinase still bound, per cent of control (MYLK4 (human)): 81% | kinase still bound, per cent of control (NEK4 (human)): 100% | kinase still bound, per cent of control [1]: 94% | kinase still bound, per cent of control (ALK (human)): 100% | kinase still bound, per cent of control (DYRK2 (human)): 85% | kinase still bound, per cent of control (PIP5K1C (human)): 100% | kinase still bound, per cent of control (HUNK (human)): 100% | kinase still bound, per cent of control (CDKL1 (human)): 100% | kinase still bound, per cent of control (FYN (human)): 98% | kinase still bound, per cent of control (MATK (human)): 100% | kinase still bound, per cent of control (CaMK1 (human)): 99% | kinase still bound, per cent of control (NEK1 (human)): 100% | kinase still bound, per cent of control (EPHB2 (human)): 99% | kinase still bound, per cent of control (MST1R (human)): 100% | kinase still bound, per cent of control [2]: 85% | kinase still bound, per cent of control (PHKG1 (human)): 100% | kinase still bound, per cent of control (HCK (human)): 88% | kinase still bound, per cent of control (PRKD1 (human)): 100% | kinase still bound, per cent of control (NEK11 (human)): 99% | kinase still bound, per cent of control [3]: 98% | kinase still bound, per cent of control (IRAK4 (human)): 100% | kinase still bound, per cent of control [4]: 73% | kinase still bound, per cent of control (CHEK1 (human)): 97% | kinase still bound, per cent of control (CHUK (human)): 74% | kinase still bound, per cent of control (NEK9 (human)): 100% | kinase still bound, per cent of control (HIPK1 (human)): 100% | kinase still bound, per cent of control (FLT1 (human)): 89% | kinase still bound, per cent of control (HIPK3 (human)): 78% | kinase still bound, per cent of control [5]: 92% | kinase still bound, per cent of control (BMPR1A (human)): 100% | kinase still bound, per cent of control (MAPK11 (human)): 100% | kinase still bound, per cent of control (STK32A (human)): 100% | kinase still bound, per cent of control (EPHB1 (human)): 87% | kinase still bound, per cent of control (ACVR2A (human)): 100% | kinase still bound, per cent of control (MAP2K7 (human)): 94% | kinase still bound, per cent of control (STK16 (human)): 51% | kinase still bound, per cent of control (LCK (human)): 84% | kinase still bound, per cent of control (GSK3A (human)): 100% | kinase still bound, per cent of control (DAPK3 (human)): 74% | kinase still bound, per cent of control (PIK3CD (human)): 100% | kinase still bound, per cent of control (PIP4K2C (human)): 91% | kinase still bound, per cent of control (GAK (human)): 100% | kinase still bound, per cent of control (MARK1 (human)): 83%
